According to ChEMBL document CHEMBL1201862, “PubChem BioAssay data set” (2004):
Active and inactive are the calls of the source.

How the values were obtained:
[1] = HepG2 cell cytotoxicity, dose response, cytotoxicity control for Shn3 inhibitor project, CellTiter-Glo, cherry-picked (AID 624134); assay type: functional, cell-based
[2] = target: T1, DNA repair protein RAD52 homolog (Homo sapiens, UniProt P43351); assay type: functional, biochemical
T1 sequence (P43351 whole entry): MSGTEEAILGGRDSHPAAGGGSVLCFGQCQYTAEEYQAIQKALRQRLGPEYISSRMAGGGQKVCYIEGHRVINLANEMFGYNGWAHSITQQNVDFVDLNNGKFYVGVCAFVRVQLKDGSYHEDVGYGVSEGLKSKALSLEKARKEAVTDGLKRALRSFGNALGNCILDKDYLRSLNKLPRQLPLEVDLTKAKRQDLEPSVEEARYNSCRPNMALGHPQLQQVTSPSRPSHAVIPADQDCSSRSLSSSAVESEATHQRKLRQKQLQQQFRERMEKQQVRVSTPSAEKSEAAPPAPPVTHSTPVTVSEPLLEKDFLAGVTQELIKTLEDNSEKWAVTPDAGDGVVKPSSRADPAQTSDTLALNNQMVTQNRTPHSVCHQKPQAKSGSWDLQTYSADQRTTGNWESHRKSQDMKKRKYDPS

[3] = target: E3 ubiquitin-protein ligase UHRF1 (Homo sapiens, UniProt Q96T88); experiment: Counterscreen for inhibitors of 5-meCpG-binding domain protein 2 (MBD2): TRFRET-based biochemical high throughput dose response assay to identify inhibitors of binding of ubiquitin-like with PHD and ring finger domains 1 (UHRF1) to methylated oligonucleotide.
[4] = Shn3 3'UTR reporter inhibitors, dose response, cell-based, Clone20 osteoblasts, firefly luciferase, cherry-picked (AID 624132); assay type: functional;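 note: firefly luciferase luminescence from reporter carrying the Shn3 3'UTR in osteoblasts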
HEK293 [5] = experiment: cells; conditions: Homo sapiens
HEK293 [6] = experiment: cells; conditions: Homo sapiens; remark: listed apart in the source
[7] = PAX5 activity inhibitors, dose response, selectivity assay for PAX8 inhibitor project, cell-based, plate reader, dry powder samples (AID 743047); assay type: functional;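 note: HEK293 cells carrying a Pax5 driven CD19 promoter luciferase reporter; potency of inhibitors that lower reporter luminescence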
[8] = Fluorescence-based cell-based high throughput dose response assay for inhibitors of the interaction of nucleotide-binding oligomerization domain containing 2 (NOD2) and the receptor-interacting serine-threonine kinase 2 (RIPK2).; assay type: functional; conditions: Homo sapiens
[9] = PAX2 cell-based inhibition, dose response, selectivity assay for PAX8 inhibitor project, plate reader, dry powder samples (AID 743048); assay type: functional;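 note: HEK293 cells carrying a WT1 promoter luciferase reporter driven by expressed Pax2; potency is for inhibition of Pax2 driven reporter signal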
[10] = cytotoxicity in COV362 ovarian cancer cells, dose response, cytotoxicity control for PAX8 inhibitor project, cell-based, plate reader, dry powder, SA12 (AID 743144); assay type: functional
[11] = cytotoxicity in OVCAR4 cells, dose response, cytotoxicity control for PAX8 inhibitor project, cell-based, plate reader, dry powder, SA11 (AID 743150); assay type: functional; conditions: OVCAR-4
[12] = cytotoxicity dependent on PAX8, dose response, cell-based, plate reader, dry powder (AID 743049); assay type: functional
[13] = cytotoxicity in COV434 cells, dose response, cytotoxicity control for PAX8 inhibitor project, cell-based, plate reader, dry powder, SA7 (AID 743145); assay type: functional
[14] = IOSE-T80 ovarian epithelial cell cytotoxicity, dose response, cytotoxicity control for PAX8 inhibitor project, plate reader, dry powder samples (AID 743045); assay type: functional, cell-based
[15] = A2780 ovarian cancer cell cytotoxicity, dose response, cytotoxicity control, plate reader, dry powder samples (AID 743046); assay type: functional, cell-based
[16] = IGROV1 ovarian cancer cell cytotoxicity, dose response, PAX8 inhibitor project, plate reader, dry powder samples (AID 743043); assay type: functional, cell-based; conditions: IGROV-1
[17] = NIH:OVCAR-3 ovarian cancer cell cytotoxicity, dose response, PAX8 inhibitor project, plate reader, dry powder samples (AID 743044); assay type: functional, cell-based
Paired box protein Pax-8 = Paired box protein Pax-8 (Homo sapiens, UniProt Q06710); experiment: inhibitors of PAX8-driven TPO luciferase reporter, dose response, RMG-I cells, cherry-pick (AID 687027); assay type: functional, cell-based;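 note: luciferase reporter driven by Pax8 target thyroperoxidase promoter measured by SteadyGlo luminescence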
[18] = cytotoxicity in OV-90 ovarian cancer cells, dose response, PAX8 inhibitor project, cell-based, plate reader, dry powder, SA8 (AID 743149); assay type: functional
[19] = L. donovani amastigote growth inhibition, dose response, axenic amastigotes, plate reader, dry powder (AID 651892); assay type: functional, cell-based
[20] = T. b. rhodesiense proliferation inhibition, dose response, STIB900 strain, plate reader, cherry pick (AID 651893); assay type: functional, cell-based; conditions: Trypanosoma brucei
[21] = L. donovani amastigote growth inhibition, dose response, axenic amastigotes, plate reader, cherry pick (AID 651891); assay type: functional, cell-based; conditions: Leishmania donovani
[22] = T. cruzi growth inhibition in host cells, dose response, cell-based, plate reader, dry powder, set 2 (AID 652275); assay type: functional
[23] = T. b. rhodesiense proliferation inhibition, dose response, STIB900 strain, plate reader, dry powder (AID 651894); assay type: functional, cell-based
[24] = T. cruzi intracellular amastigote growth inhibition, dose response, imaging, CA-I/72 strain, bovine embryo skeletal muscle, dry powder (AID 651885); assay type: functional, cell-based
[25] = intracellular Trypanosoma cruzi inhibitors in host cells – cell-based, plate reader, cherry-pick samples, set 3, dose response (AID 651818); assay type: functional;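 note: compounds incubated with infected cells for about four days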
[26] = L-6 rat myoblast cytotoxicity, dose response, counter-screen for T. cruzi inhibitor project, cell-based, plate reader, dry powder (AID 651895); assay type: functional
[27] = T. cruzi amastigote growth inhibition, dose response, Tulahuen strain, L-6 host cells, dry powder (AID 651890); assay type: functional, cell-based
[28] = growth inhibition of intracellular T. cruzi, dose response, cell-based, plate reader, dry powder samples (AID 651845); assay type: functional
[29] = P. falciparum blood-stage growth inhibition, dose response, NF54 strain, plate reader, dry powder (AID 651889); assay type: functional, cell-based
[30] = cytotoxicity in L-6 rat myocytes, dose response, cytotoxicity control, cell-based, plate reader, cherry-pick (AID 651896); assay type: functional
[31] = growth suppression of PTEN-null colon cells, dose response, cell-based, HCT116 PTEN knockout (AID 1047); assay type: functional;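 note: HCT116 colon tumor cells with PTEN knocked out; cells exposed to compound for 60 hours before readout; potency for loss of cell viability measured by luminescence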
Protein skinhead-1 = target: T2, Protein skinhead-1 (Caenorhabditis elegans, UniProt P34707); assay type: functional
T2 sequence (P34707 whole entry): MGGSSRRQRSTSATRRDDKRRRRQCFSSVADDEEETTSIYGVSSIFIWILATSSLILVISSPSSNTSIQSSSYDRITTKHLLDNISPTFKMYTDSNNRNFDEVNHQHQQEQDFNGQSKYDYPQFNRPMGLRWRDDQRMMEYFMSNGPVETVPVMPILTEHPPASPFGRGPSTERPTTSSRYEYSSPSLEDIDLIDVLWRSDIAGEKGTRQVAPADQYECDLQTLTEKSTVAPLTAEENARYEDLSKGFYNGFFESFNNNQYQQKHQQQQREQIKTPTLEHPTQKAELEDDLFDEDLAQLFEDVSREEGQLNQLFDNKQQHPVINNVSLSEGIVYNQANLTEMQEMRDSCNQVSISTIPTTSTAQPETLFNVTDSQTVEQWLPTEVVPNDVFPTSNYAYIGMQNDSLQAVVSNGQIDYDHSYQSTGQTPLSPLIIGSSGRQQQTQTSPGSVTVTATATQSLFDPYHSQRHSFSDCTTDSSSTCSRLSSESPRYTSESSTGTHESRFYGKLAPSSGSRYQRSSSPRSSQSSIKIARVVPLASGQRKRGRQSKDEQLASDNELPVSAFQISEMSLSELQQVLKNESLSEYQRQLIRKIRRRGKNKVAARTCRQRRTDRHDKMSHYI

[32] = growth suppression of beta-catenin-knockout colon cells, dose response, cell-based, HCT116, human colon tumor (AID 1045); assay type: functional;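 note: HCT116 colon tumor cells with beta catenin knocked out; cells exposed to compound for 60 hours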
[33] = inhibitors of PGC1a acetylation in cells, dose response, cell-based, cherry-picked samples (AID 720514); assay type: functional;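 note: potency may reflect raised or lowered acetylation signal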
[34] = target: T3, Oxysterols receptor LXR-beta (Homo sapiens, UniProt P55055); experiment: LXR agonists, Gal4 luciferase reporter, dose response, counter-screen for ssDAF-12 agonist project, cell-based, luminescence, HEK293, S. stercoralis campaign (AID 720737); assay type: functional; conditions: read-out: IC50 (the source's name)
T3 sequence (P55055 whole entry): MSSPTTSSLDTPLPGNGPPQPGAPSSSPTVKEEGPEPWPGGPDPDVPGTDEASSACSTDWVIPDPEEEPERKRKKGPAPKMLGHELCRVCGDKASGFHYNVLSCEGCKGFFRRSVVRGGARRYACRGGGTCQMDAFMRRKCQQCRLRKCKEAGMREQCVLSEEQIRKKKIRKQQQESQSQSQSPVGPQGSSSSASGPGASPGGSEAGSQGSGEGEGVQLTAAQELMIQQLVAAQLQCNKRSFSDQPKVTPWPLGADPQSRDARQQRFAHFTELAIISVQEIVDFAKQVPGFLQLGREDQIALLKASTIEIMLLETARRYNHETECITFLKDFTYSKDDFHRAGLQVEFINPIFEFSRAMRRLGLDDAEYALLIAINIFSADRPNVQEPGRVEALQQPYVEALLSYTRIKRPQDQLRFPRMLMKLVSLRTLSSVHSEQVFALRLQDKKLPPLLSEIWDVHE

[35] = Luminescence-based cell-based high throughput dose response assay to identify activators of the DAF-12 from the parasite S. stercoralis (ssDAF-12).; assay type: functional
[36] = CTGF mRNA reduction under YAP1 overexpression, dose response, mechanism study for YAP1 pathway inhibitor project, DLD1 cells, RT-qPCR, cherry-pick (AID 1053127); assay type: functional, cell-based; conditions: DLD-1
[37] = YAP1 pathway inhibition via CTGF transcript levels, dose response, cell-based, DLD1 colon cancer, RT-qPCR, cherry-pick (AID 1053122); assay type: functional; conditions: Cancer cell lines
[38] = P. falciparum Dd2 growth inhibitors, dose response, SYBR Green, cherry-picked samples (AID 1159567); assay type: functional, cell-based
[39] = target: T4, Endoplasmic reticulum aminopeptidase 1 (Homo sapiens, UniProt Q9NZ08); experiment: ERAP1 aminopeptidase inhibitors, dose response, biochemical, cherry-pick, set 2, plate reader (AID 743314)
[40] = target: T4, Endoplasmic reticulum aminopeptidase 1; experiment: ERAP1 enzyme inhibitors, dose response, biochemical, fluorescence plate reader, dry powder (AID 1117292); assay type: functional

T4 sequence (Q9NZ08 whole entry): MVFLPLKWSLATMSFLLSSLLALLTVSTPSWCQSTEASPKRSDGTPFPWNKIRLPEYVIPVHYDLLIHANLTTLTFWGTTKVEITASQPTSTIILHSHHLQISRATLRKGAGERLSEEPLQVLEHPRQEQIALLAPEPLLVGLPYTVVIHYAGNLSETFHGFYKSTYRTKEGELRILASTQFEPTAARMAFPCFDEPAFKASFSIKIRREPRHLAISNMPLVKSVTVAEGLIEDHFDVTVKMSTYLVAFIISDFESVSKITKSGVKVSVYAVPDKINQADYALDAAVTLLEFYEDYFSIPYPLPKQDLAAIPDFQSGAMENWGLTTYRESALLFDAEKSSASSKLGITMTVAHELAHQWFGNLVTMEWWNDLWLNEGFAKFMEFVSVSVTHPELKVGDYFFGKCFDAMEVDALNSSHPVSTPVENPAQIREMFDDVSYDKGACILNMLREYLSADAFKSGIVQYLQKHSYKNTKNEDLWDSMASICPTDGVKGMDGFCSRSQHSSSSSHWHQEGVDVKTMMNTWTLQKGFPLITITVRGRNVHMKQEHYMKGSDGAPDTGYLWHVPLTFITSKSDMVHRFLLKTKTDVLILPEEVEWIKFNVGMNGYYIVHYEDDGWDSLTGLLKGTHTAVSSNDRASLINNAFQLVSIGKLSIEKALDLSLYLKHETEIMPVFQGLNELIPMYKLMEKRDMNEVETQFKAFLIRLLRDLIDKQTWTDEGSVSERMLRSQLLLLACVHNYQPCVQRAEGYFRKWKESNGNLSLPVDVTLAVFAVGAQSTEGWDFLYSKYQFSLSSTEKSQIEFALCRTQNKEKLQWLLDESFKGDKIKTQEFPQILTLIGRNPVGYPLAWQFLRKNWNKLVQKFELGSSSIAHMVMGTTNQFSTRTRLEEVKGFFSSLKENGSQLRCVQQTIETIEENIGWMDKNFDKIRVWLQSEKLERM
Paired box protein Pax-8, sequence (Q06710 whole entry): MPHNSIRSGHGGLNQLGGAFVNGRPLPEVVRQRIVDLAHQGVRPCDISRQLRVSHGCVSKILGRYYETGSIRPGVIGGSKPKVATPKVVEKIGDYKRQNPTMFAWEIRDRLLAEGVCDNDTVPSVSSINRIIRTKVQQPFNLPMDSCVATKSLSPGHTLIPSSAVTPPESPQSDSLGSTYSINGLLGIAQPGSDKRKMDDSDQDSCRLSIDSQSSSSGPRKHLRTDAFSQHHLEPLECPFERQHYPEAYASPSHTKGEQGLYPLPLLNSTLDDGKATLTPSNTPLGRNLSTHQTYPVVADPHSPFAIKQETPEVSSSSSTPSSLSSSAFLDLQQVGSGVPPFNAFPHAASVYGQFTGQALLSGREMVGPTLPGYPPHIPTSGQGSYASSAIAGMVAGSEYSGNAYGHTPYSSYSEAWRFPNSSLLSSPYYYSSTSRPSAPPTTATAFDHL
E3 ubiquitin-protein ligase UHRF1, sequence (Q96T88 whole entry, the tested form may be a part): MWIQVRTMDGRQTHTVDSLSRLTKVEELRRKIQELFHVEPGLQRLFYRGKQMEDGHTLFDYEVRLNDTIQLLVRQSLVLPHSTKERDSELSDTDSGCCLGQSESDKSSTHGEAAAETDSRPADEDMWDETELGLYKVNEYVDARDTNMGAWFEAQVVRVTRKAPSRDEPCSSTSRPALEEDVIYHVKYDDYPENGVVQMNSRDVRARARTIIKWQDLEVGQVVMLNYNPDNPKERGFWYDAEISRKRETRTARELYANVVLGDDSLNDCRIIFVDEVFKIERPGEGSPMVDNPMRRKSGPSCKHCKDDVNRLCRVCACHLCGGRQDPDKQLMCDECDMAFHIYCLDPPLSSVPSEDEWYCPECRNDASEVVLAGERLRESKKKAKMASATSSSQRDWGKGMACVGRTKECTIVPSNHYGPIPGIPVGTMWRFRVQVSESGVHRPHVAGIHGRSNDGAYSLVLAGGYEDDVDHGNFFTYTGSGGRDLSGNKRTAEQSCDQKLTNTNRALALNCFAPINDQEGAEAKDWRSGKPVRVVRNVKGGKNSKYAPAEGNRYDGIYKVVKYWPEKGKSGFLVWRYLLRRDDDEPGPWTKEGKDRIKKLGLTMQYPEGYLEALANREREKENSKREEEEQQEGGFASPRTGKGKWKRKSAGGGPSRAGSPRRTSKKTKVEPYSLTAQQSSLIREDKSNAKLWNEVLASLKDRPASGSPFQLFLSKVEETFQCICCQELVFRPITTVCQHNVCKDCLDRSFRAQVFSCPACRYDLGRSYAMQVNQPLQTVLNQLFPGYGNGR

Which AC50 [1] does the source give for COc1ccc(C(=O)NCCN(C)C)c2nc3ccccc3cc12 here?
The AC50 was 5.16 µM (active).

And the AC50 [2]?
Its AC50 is 1.04 µM (active).

What about the IC50 [3] of the same molecule?
The IC50 was 9.07 µM (active).

What about the AC50 [4] of the same molecule?
The AC50 was 5.78 µM (active).

And the EC50 (HEK293 [5])?
Its EC50 is > 59.5 µM (inactive).

What about the EC50 (HEK293 [6]) of the same molecule?
The EC50 was > 59.5 µM (inactive).

With Cc1cccc2sc(N(CCCN(C)C)C(=O)CCS(=O)(=O)c3ccccc3)nc12 as the molecule, how does the AC50 [7] read?
The AC50 was 43.1 µM (active).

What about the IC50 [8] of the same molecule?
The IC50 was 6.59 µM (active).

And the AC50 [9]?
Its AC50 is 35.7 µM (active).

What about the AC50 [10] of the same molecule?
Its AC50 is 20.3 µM (active).

And the AC50 [11]?
Its AC50 is 34.8 µM (active).

What about the AC50 [12] of the same molecule?
The AC50 was 7.67 µM (active).

And the AC50 [13]?
The AC50 was 8.43 µM (active).

What about the AC50 [14] of the same molecule?
Its AC50 is 21.8 µM (active).

And the AC50 [15]?
Its AC50 is 6.9 µM (active).

What about the AC50 [16] of the same molecule?
The AC50 was 11.5 µM (active).

And the AC50 [17]?
The AC50 was 8.92 µM (active).

And the AC50 (Paired box protein Pax-8)?
Its AC50 is 6.18 µM (active).

And the AC50 [18]?
Its AC50 is 17.1 µM (active).

With C[C@H]1CN([C@@H](C)CO)C(=O)c2cccc(NC(=O)c3ccncc3)c2O[C@H]1CN(C)Cc1ccc(Oc2ccccc2)cc1 as the molecule, how does the IC50 [19] read?
Its IC50 is > 100 µM (inactive).

What about the IC50 [20] of the same molecule?
Its IC50 is 6.15 µM (inactive).

What about the IC50 [21] of the same molecule?
Its IC50 is > 100 µM (inactive).

What about the AC50 [22] of the same molecule?
Its AC50 is 0.0116 µM (active).

And the IC50 [23]?
Its IC50 is 3.62 µM (inactive).

What about the IC50 [24] of the same molecule?
The IC50 was 0.00042 µM (active).

And the AC50 [25]?
The AC50 was 0.08 µM (active).

What about the IC50 [26] of the same molecule?
Its IC50 is 47.5 µM (inactive).

What about the IC50 [27] of the same molecule?
The IC50 was 0.059 µM (active).

What about the AC50 [28] of the same molecule?
The AC50 was 0.0252 µM (active).

And the IC50 [29]?
The IC50 was 2.94 µM (inactive).

And the IC50 [30]?
The IC50 was 43.7 µM (inactive).

What does the source list for Cc1[nH]c2ccccc2c1C(=O)/C=C/c1ccccc1?
EC50 [31]: 22 µM (active); IC50 (Protein skinhead-1): > 100 µM (inactive); EC50 [32]: 19.2 µM (active); AC50 [33]: 29.8 µM (active)

With C(=N\Nc1nc2ccccc2s1)/c1cccs1 as the molecule, how does the EC50 [34] read?
The EC50 was > 67.5 µM (inactive).

And the IC50 [35]?
The IC50 was > 67.5 µM (inactive).

With CO[C@@H]1CN(C)C(=O)c2ccc(NC(=O)c3nc4ccccc4s3)cc2OC[C@@H](C)N(Cc2cccnc2)C[C@H]1C as the molecule, how does the AC50 [36] read?
Its AC50 is 19.6 µM (active).

What about the AC50 [37] of the same molecule?
The AC50 was 5.03 µM (active).

What about the AC50 [38] of the same molecule?
Its AC50 is 4.6 µM (active).

Which AC50 [39] does the source give for CC(=O)N1CCN(C(=O)C2(NC(=O)Nc3ccc(C)cc3)CCCCC2)CC1 here?
The AC50 was 8.21 µM (active).

And the AC50 [40]?
Its AC50 is 24.8 µM (active).
